A short description of data set [1]: Pharmacokinetic parameters after intravenous administration in rats. In kind it is in vivo. The settings on record: for half-life / Vd / clearance: rat, iv, 0.3-1.0 mg/kg, solution in plasma with up to 2% DMSO; for Vd: read-out: VSS; for clearance: read-out: CLplasma (converted). The protocol: (§1) The substance to be examined was administered to animals (for example mice or rats) intravenously as a solution (for example in corresponding plasma with a small addition of DMSO or in a PEG/ethanol/water mixture), and peroral administration was effected as a solution (for example in Solutol/ethanol/water or PEG/ethanol/water mixtures) or as a suspension (e.g. in tylose), in each case via a gavage. After administration of the substance, blood was taken from the animals at fixed times. The blood was heparinized, then plasma was obtained therefrom by centrifugation. The substance was quantified analytically in the plasma via LC-MS/MS. From the plasma concentration/time plots determined in this way, using an internal standard and with the aid of a validated computer program, the pharmacokinetic parameters, such as AUC (area under the concentration/time curve), Cmax (maximum plasma concentration), t1/2 (half life), VSS (distribution volume) and CL (clearance), and the absolute and relative bioavailability F and Frel (i.v./p.o. comparison or comparison of suspension to solution after p.o. administration), were calculated.
The substance to be examined was administered intravenously to rats, in each case in amounts between 0.3 and 1.0 mg/kg as a solution in plasma which contained up to 2% DMSO.

Data set [2] can be described thus: Pharmacokinetic parameters after peroral administration in rats. The class given is in vivo. The settings on record: for half-life: rat, plasma, po. The protocol: as §1
To determine the active ingredient release from a prodrug compound, the prodrug was administered either intravenously or perorally, as described above, and the concentrations both of the prodrug and of the active ingredient released were quantified in the processed plasma.
The substance to be examined was administered perorally to rats, in each case in amounts between 1 and 3 mg/kg as a solution in Solutol/ethanol/water (40:10:50 or 40:20:40). The kinetic parameters determined for Working Example 1 are shown below by way of example for the inventive compounds [AUCnorm=dose-normalized exposure (area under the concentration/time curve)]:
The second row in this table gives the pharmacokinetic parameters for Example 1, as obtained after peroral administration of the prodrug compound from Example 15 (1 mg/kg of crystalline substance as a tylose suspension in water).

Data set [3] can be described thus: pH-dependent hydrolysis stability. In kind it is physicochemical. The method, then:
0.3 mg of the test substance (prodrug) was weighed into a 2 ml HPLC vial, and 0.6 ml of acetonitrile or acetonitrile/DMSO mixture (with up to 20 percent by volume of DMSO) was added. To dissolve the substance, the sample vessel was placed into an ultrasound bath for approx. 10 seconds. Subsequently, 1.0 ml of the particular aqueous buffer solution was added (commercially available buffer solutions of pH 2, 4, 6.5, 8 and 10) and the sample was treated again in the ultrasound bath. Over a period of 24 hours at 37° C., 5 μl of the sample solution were analysed by HPLC every hour for its content of unchanged prodrug or active ingredient released therefrom by hydrolysis. Quantification was effected via the area percentages of the corresponding HPLC peaks.

[4] abbreviates: rats, 1-3 mg/kg, solution in Solutol/ethanol/water.
Where [5] appears, read: rats, p.o., 1-3 mg/kg, solution in Solutol/ethanol/water.

The source of these data is patent publication US8470811B2, “Substituted heterocyclylbenzylpyrazoles and use thereof” (Bayer Intellectual Property GmbH, priority 2010, dated 2013).

Usually half-life stands for the time needed for the level to fall by half in the phase considered. A low value points to rapid decline.

As for `Cc1ccc(Cn2nc(-c3nc(-c4ccc(OC(F)(F)F)cc4)no3)cc2C)cc1` [Example 1 in WO 2008/141731-A2, 5-[5-methyl-1-(4-methylbenzyl)-1H-pyrazol-3-yl]-3-[4-(trifluoromethoxy)phenyl]-1,2,4-oxadiazole, reference compound], in data set [1] (intravenous administration), the CLplasma is listed as 0.4 I/h/kg. In data set [1], the half-life is 30 h and the Vd turned out to be 6.9 L/kg. For the same molecule, in data set [2] (setting [4]), the half-life is 29 h. Also, in data set [2] (setting [5]), the AUCnorm stood at 1.9 kg·h/L and the F is listed as 74%.
For the molecule `Cc1cc(-c2nc(-c3ccc(OC(F)(F)F)cc3)no2)nn1Cc1cccc(N2CC(O)C2)c1` [Example 1, 1-{3-[(5-Methyl-3-{3-[4-(trifluoromethoxy)phenyl]-1,2,4-oxadiazol-5-yl}-1H-pyrazol-1-yl)methyl]phenyl}azetidin-3-ol], in data set [1], the half-life is 6.8 h, the clearance was 26.7 mL/min/kg and the Vd came to 12 L/kg. Moreover, in data set [2] (Example 1 in rat plasma after p.o. administration of prodrug Example 15, 1 mg/kg crystalline substance as tylose suspension in water), the AUCnorm was 0.35 kg·h/L. In addition, in data set [2] (setting [4]), the half-life was 12 h. For the same molecule, in data set [2] (setting [5]), the AUCnorm worked out at 0.43 kg·h/L and the F worked out at 68%.
`Cc1cc(-c2nc(-c3ccc(SC(F)(F)F)cc3)no2)nn1Cc1cccc(N2CCC(O)CC2)c1` [Example 14, 1-(3-{[5-Methyl-3-(3-{4-[(trifluoromethyl)sulphanyl]phenyl}-1,2,4-oxadiazol-5-yl)-1H-pyrazol-1-yl]methyl}phenyl)piperidin-4-ol]: in data set [1], the half-life was 8.2 h, the clearance is 12 mL/min/kg and the Vd was found to be 7.8 L/kg.
Take `Cc1cc(-c2nc(-c3ccc(OC(F)(F)F)cc3)no2)nn1Cc1cccc(N2CC(OC(=O)CN(C)C)C2)c1` [Example 15, 1-{3-[(5-Methyl-3-{3-[4-(trifluoromethoxy)phenyl]-1,2,4-oxadiazol-5-yl}-1H-pyrazol-1-yl)methyl]phenyl}azetidin-3-yl N,N-dimethylglycinate]: in data set [2] (after p.o. administration of Example 15, 1 mg/kg tylose suspension, all times examined), the “prodrug compound itself in the plasma of the rats” value was “not detectable”. The “% Example 15 prodrug” value in data set [3] (pH 2, 37° C., 12 h) worked out at 89%; in data set [3] (pH 4, 37° C., 12 h), 89%; in data set [3] (pH 6.5, 37° C., 0 h), 94%; in data set [3] (pH 6.5, 37° C., 2 h), 91%; in data set [3] (pH 6.5, 37° C., 4 h), 87%; in data set [3] (pH 6.5, 37° C., 6 h) it was 84%. The “% Example 15 prodrug” value was 73% in data set [3] (pH 6.5, 37° C., 12 h); 56% in data set [3] (pH 6.5, 37° C., 24 h); 64% in data set [3] (pH 8, 37° C., 12 h); 0% in data set [3] (pH 10, 37° C., 12 h). In addition, the “% Example 1 active ingredient” value in data set [3] (released from Example 15, pH 2, 37° C., 12 h) was 6%; in data set [3] (released from Example 15, pH 4, 37° C., 12 h), 9%; in data set [3] (released from Example 15, pH 6.5, 37° C., 0 h) it was 3%; in data set [3] (released from Example 15, pH 6.5, 37° C., 2 h), 7%; in data set [3] (released from Example 15, pH 6.5, 37° C., 4 h), 10%; in data set [3] (released from Example 15, pH 6.5, 37° C., 6 h), 13%. The “% Example 1 active ingredient” value in data set [3] (released from Example 15, pH 6.5, 37° C., 12 h) is listed as 22%; in data set [3] (released from Example 15, pH 6.5, 37° C., 24 h), 35%; in data set [3] (released from Example 15, pH 8, 37° C., 12 h) it was 30%; in data set [3] (released from Example 15, pH 10, 37° C., 12 h), 78%.
